Where only a bound is given, the exact number is not on record here.

`O=C(O)c1cc(-c2ccccc2C(F)(F)F)nc(C(F)(F)F)c1` yielded a melting point of 155 to 157 °C. Consider `CCOC(=O)c1ccc(N(C)C)nn1`, for which the melting point was found to be 112 °C. Next, `CC(=O)Nc1ccc(C23CC2C(=O)NC3=O)cc1` (centres undefined): more than 230 °C; `Cc1oc2c(-n3c(=O)cc(C(F)(F)F)n(C)c3=O)ccc(Cl)c2c1NO`: 134 to 136 °C; `NS(=O)(=O)c1ccc(C2=C(c3ccc(F)cc3)CC3(CC3)C2)cc1`: 131 to 133 °C. The same measure for `O=C(O)Cc1cccc(Cc2nc3c(F)c(F)ccc3s2)c1`: 154 to 155 °C.

Turning to `CSc1nc(-c2nnn(C)n2)c(I)c(C(F)(F)F)n1`, the melting point is 113 to 118 °C. `Cn1c(-c2ccc(N3CCOCC3)cc2)cnc1[C@H](Cc1ccccn1)N(C=O)c1cc2cc(Br)ccc2o1` came in with a melting point of 173 to 174 °C. `O=C(O)c1sc2cc(OCc3cccnc3)ccc2c1Sc1ccccc1` returned a melting point of 236 to 238 °C.

Take `C1CN2CCN3CCN(CCN1)P23`: the melting point lay in the range of 109 to 111 °C. Take `CCCOc1ccc(-c2c(Cl)ncn2-c2ccc(S(C)(=O)=O)cc2)cc1`: the melting point fell in the range of 161 to 163 °C. On to `O=C1CCCc2scnc21`, for which the melting point was in the range of 121 to 122 °C. With `COC(=O)c1cccc2nc(SCCCN3CCN(CC(=O)Nc4c(C(C)C)cccc4C(C)C)CC3)oc12`, the melting point is 135 to 136 °C. The same measure for `CSC(=CC(=O)c1ccccc1Br)N1CCN2CCC1CC2`: 107 to 108 °C; for `O=C1CNC(=O)N1c1cc(Cl)cc(Cl)c1`: 199 °C. In turn, `CC(=O)OC1CSC(Oc2cncc(-c3ccc(C)c(C)c3)c2)C(OC(C)=O)C1OC(C)=O` (centres undefined) came in with a melting point of 131 °C. The compound `O=S(=O)(Cl)c1ccc(Oc2ccc(Cl)cc2)cc1` yielded a melting point of 61 °C.

Consider `CC1(COc2ccc([N+](=O)[O-])cc2)CC(=O)c2cc(C(=O)O)ccc2O1` (centres undefined), for which the melting point is 227 to 235 °C.

Compound `CC(=NOCCOc1ccc(C(=O)O)c(O)c1)c1ccccc1` showed a melting point of 149 to 150 °C. For `Cc1ccc2cc(NC(=O)c3cccc(SCc4cnccn4)c3)ccc2n1`, the melting point lay in the range of 102 to 105 °C. Compound `CC(C)(O)c1cc2cc(O)c(Cl)c(Cl)c2s1` showed a melting point of 171 to 173 °C. In turn, `N#CC(C(=O)Nc1ccc(S(=O)C(F)(F)F)cc1)=C(O)C1CC1` (centres undefined) yielded a melting point of 155 to 157 °C. `Cc1cc(N)c(I)c(C)n1` had a melting point of 103 to 110 °C. The compound `CCCCCCCCCCCCCCCCCC(O)c1ccc(C2=NC(C)(C)CO2)c(Cl)c1` (centres undefined) had a melting point of 74 to 78 °C. In turn, `CC(=O)NCC1CN(c2ccc3c(c2)OCC2CN(C(=O)c4cc5ccccc5[nH]4)CCN32)C(=O)O1` (centres undefined) showed a melting point of more than 250 °C. Next, `Nc1cc(-n2cc(C(=O)O)c(=O)c3c(O)c(F)c(F)cc32)c(F)cc1F`: more than 270 °C; `CCc1nn(CC#N)c(CC)c1Oc1cc(Cl)cc(Cl)c1`: 70 to 72 °C. Next, `C#CC1(O)CCN(CC=C(c2ccccc2)c2ccccc2)CC1`: 122 to 123 °C; `Cc1cc2sc3ncc(C(=O)Nc4nnn[nH]4)c(=O)n3c2cc1C`: more than 300 °C. The same measure for `Cn1cc(-c2c(-c3ccccc3F)nn3ccncc23)ccc1=O`: 193 to 194 °C. In turn, `Cc1ccccc1C(=O)Nc1ccc(C(=O)N2Cc3cccn3Cc3sccc32)cc1` had a melting point of 162 to 188 °C.

`CC[C@H](C)[C@H](OCc1ccccc1)[C@H]1[C@H]([N+](=O)[O-])[C@H](c2ccccc2)N[C@@H]1C(=O)NCC(=O)O` gave a melting point of 156 to 157 °C.

On to `O=S1NC(CC2=C(Cl)c3ccccc3CC2)=NO1` (centres undefined), for which the melting point was 90.5 to 91.5 °C.

The compound `CCc1c(-c2nnc(C)s2)cc2oc(=O)c(C)c(C)c2c1OC` came in with a melting point of 201 to 203 °C. In the case of `CCn1cc(C(=O)O)c2ccc(Cl)cc21`, the melting point lay within 225 to 227 °C. Next, `CC(=O)c1cc(C)c(NC(=O)c2cc(C(F)(F)F)nn2-c2ncccc2Cl)c(C(=O)NC(C)C)c1`: 135 to 137 °C. The same measure for `CC1(C)c2ccc([N+](=O)[O-])cc2[C@@H](NC(=O)NCc2ccccc2)[C@@H]1O` (relative stereo): 202 to 204 °C. Next, `CC(O)c1ccc(CCOc2ccc(CC3SC(=O)NC3=O)cc2)nc1` (centres undefined): 155 to 156 °C.

The compound `CS(=O)(=O)c1ccc(C(=O)Nc2ccc(Cl)c(-c3ncc(C(=O)NO)cn3)c2)c(Cl)c1` showed a melting point of 170 to 172 °C. Regarding `NC(=O)CCCCCCCOc1nc(-c2ccccc2)c(-c2ccccc2)n1-c1ccccc1`, the melting point was in the range of 152 to 154 °C.

The compound `Nc1nc2ccccc2c2c1ncn2CCOCC#Cc1ccccc1C(F)(F)F` returned a melting point of 154 to 155 °C. Compound `O=C(NC1=NCCS1)c1c(C(F)(F)F)nc(-c2ccccc2)c(-c2ccccc2)c1O` displayed a melting point of 280 °C.

In the case of `CC(C)c1ccc(C(=O)N2CCCCC2)c(NS(=O)(=O)c2cccc3nsnc23)c1`, the melting point lay within 125 to 127 °C.

In turn, `CN(C)CCNC(=O)c1cccc(-c2nnc(CSCCOc3ccccc3)o2)c1` gave a melting point of 64 °C. The same measure for `Cc1nc(C=O)c2n1-c1ccc(Cl)cc1C(c1ccccc1)=NC2`: 218 to 220 °C. Compound `COc1cccc(N2C(CO)=Cc3ccsc3S2(=O)=O)c1` showed a melting point of 141 to 143 °C. Next, `COc1cc(OC)c2c(=O)[nH]c(-c3ccc(OCC[N+]4([O-])CCCC4)c(-c4ccc(S(C)(=O)=O)cc4)n3)nc2c1`: 167 to 170 °C; `CCCCc1cc2c(=O)n3cc(C#N)ccc3nc2s1`: 216 to 217 °C. `COC(=O)c1ccccc1OCCCOc1cc2c(cc1O)CCO2` came in with a melting point of 96 to 97 °C.

Compound `Cc1cccc2c(=O)[nH]c(N3CCN(CCCCN4CCN(C)CC4)CC3)cc12` had a melting point of 202 to 203 °C. Next, `CCNc1ccc(SSc2ccc(NCC)cc2C(=O)NC(C(=O)O)C(C)CC)c(C(=O)NC(C(=O)O)C(C)CC)c1` (centres undefined): 97 to 100 °C; `Cc1c(C(=O)O)sc2ccc(CO)cc12`: 260 to 262 °C. For `O=S1(=O)CC=C(CBr)C1`, the melting point lay within 76 to 84 °C. In the case of `Nc1ccc(P(=O)(O)O)cc1`, the melting point lay within 257 to 260 °C. Consider `CCc1c(C)nc2n1N=C(c1ccc(N)cc1)c1cc3c(cc1C2)OCO3`, for which the melting point is 227 to 228 °C. The same measure for `COC(=O)CN(C)c1nc(-c2ccc(Br)cc2)cs1`: 86 °C. Take `Cc1ncc(C#N)c(Nc2ccc3[nH]ccc3c2C)c1-c1cc2cc(C=O)ccc2o1`: the melting point is 168 to 169 °C.

The compound `Cn1c(=O)c2c(-c3ccccc3)n(-c3cc([N+](=O)[O-])ccc3N)cc2n(C)c1=O` showed a melting point of more than 300 °C.

For the compound `O=C(Sc1ccccn1)c1ccc(I)cc1`, the melting point turned out to be 127 °C. The same measure for `COc1ccc2c(c1)CC(=O)c1cc(C(C)C(N)=O)ccc1S2` (centres undefined): 186 to 188 °C; for `CC1(C(=O)n2ccnc2)CC1`: 34 to 35 °C; for `COC(=O)c1ccccc1-c1ccc(CNc2nc(Cl)nc3ccccc23)cc1`: 75 to 90 °C. Next, `CN1CCC(=O)C(C2c3ccccc3Oc3ccccc32)C1` (centres undefined): 160 to 162 °C; `CC1CCc2c(c3c(O)cc(C(C)CCCc4ccc(F)cc4)cc3oc2=O)C1` (centres undefined): 127 to 129 °C; `CC(C)n1nc(-c2sc(C(=O)NC3CCCCC3)nc2-c2ccccc2)ccc1=O`: 225 to 226 °C.

In turn, `O=c1nc(-c2cccc(-n3cccn3)n2)sc2ccccc12` came in with a melting point of 253 to 254 °C.

`Oc1ccc(-c2nc3ccccc3[nH]2)cc1` yielded a melting point of 286 to 288 °C.

On to `c1csc(-c2nc(COc3ccc(CCCCn4ccnc4)cc3)co2)c1`, for which the melting point was 106 to 107 °C. Next, `Oc1ccc2c(c1)CCN(c1ccc(Cl)cc1)C2`: 122 to 123 °C; `CCC(=C(c1ccccc1)c1ccc(OCC(O)CO)cc1)C1CCCC1` (centres undefined): 89 to 91 °C. For `CC(C)Oc1ccc(/C=C/C=C/CO)cc1`, the melting point fell in the range of 91 to 92 °C. Next, `COCCN1CC(c2ccccc2)NC1=O` (centres undefined): 82 to 83 °C; `N#Cc1cc(C(F)(F)F)[nH]c1-c1ccsc1Br`: 170 °C; `CCOC(=O)C(C(=O)OCC)[C@@H](c1ccccc1)c1c[nH]c2cccc(OC)c12`: 134 to 136 °C. The same measure for `CC(=O)Oc1ccc(C=C2CCCc3cc(C)cnc32)cc1OC(C)=O`: 100 to 101 °C; for `CCNC(=S)NS(=O)(=O)N1CCC(CCNC(=O)c2cc(Cl)ccc2OC)CC1`: 138 to 140 °C; for `CC(C)C1N2C=CC=CC2=CC1(C=C(Br)Br)c1ccc(F)cc1` (centres undefined): 134 to 135 °C. Next, `CN1CCC23c4c5ccc(OCCCN)c4OC2C(O)C=CC3C1C5` (centres undefined): 132 to 134 °C. In the case of `O=S1(=O)N=C2CCCN2c2ccc(Oc3cccc(O)c3)cc21`, the melting point is more than 300 °C. Next, `[N-]=[N+]=Cc1ccc([N+](=O)[O-])cc1`: 80 to 82 °C; `CCCCc1nn(-c2cc(NC(=O)CC)ccc2Br)c(=O)n1Cc1ccc(-c2ccccc2S(=O)(=O)NC(C)(C)C)cc1F`: 119 to 121 °C. `COc1cc(C(=O)O)nc(-c2ccc(N(C)C)cc2)c1` gave a melting point of 142 to 148 °C.

For the compound `Cc1cc(COc2ccc(F)c(C(N)=O)c2F)ccn1`, the melting point was 185 to 186 °C. Next, `COc1ccc(-c2ccc(C(=O)O)cc2)cc1F`: 253 °C; `CC(C)(C)[C@H]1N(c2ccc(C#N)c3ccccc23)C(=O)[C@@H]2C[C@@H](O)CN21`: 155 to 157 °C. In the case of `CN1CCC(=C2c3ccc(Cl)cc3CCn3ccnc32)CC1`, the melting point stood at 187 °C.

The compound `Cc1ccc([N+](=O)[O-])cc1Nc1nccc(-c2cccnn2)n1` came in with a melting point of 275 to 277 °C. On to `COc1cc2[nH]cc(C(=O)NN3CCNC3=O)c(=O)c2cc1OC`, for which the melting point is more than 300 °C.

`CS(=O)(=O)Nc1ccc(OCCCN2CCC(OC(c3ccccc3)c3ccccc3)CC2)cc1`: the melting point lay in the range of 41 to 43 °C.

In general, melting point refers to the temperature of the solid-liquid transition.

Values taken from a melting point compilation (Tetko et al.; mined from patent text by program, amines drawn as free bases though some values may be those of a salt).
